Holding throughout (format): cell-based, human
The subject of experiment [1] is peripheral blood mononuclear cells from healthy donors. Nature of the experiment: Immunogenicity in peripheral blood mononuclear cells from healthy donors.
For a further experiment, the system named is MD55A3 cells. Description: Proteomic analysis of tryptophan-containing proteins with IFNγ and proteasome inhibition. Particulars: combined treatment with IFNγ and MG132. The procedure: Frozen MD55A3 cell pellets were lysed, reduced and alkylated in heated guanidine (GuHCl) lysis buffer as described by Jersie-Christensen et al.^70. Proteins were digested with Lys-C (Wako) for 2 h at 37° C., enzyme/substrate ratio 1:100. The mixture was then diluted to 2 M GuHCl and digested overnight at 37° C. with trypsin (Sigma) in enzyme/substrate ratio 1:50. Digestion was quenched by the addition of TFA (final concentration 1%), after which the peptides were desalted on a Sep-Pak C18 cartridge (Waters, Massachusetts, USA). Samples were vacuum dried and stored at −80° C. until LC-MS/MS analysis.
Peptides were reconstituted in 2% formic acid and analyzed by nano LC-MS/MS on an Q Exactive HF-X Hybrid Quadrupole-Orbitrap Mass Spectrometer equipped with an EASY-NLC 1200 system (Thermo Scientific). […]
RAW files were analyzed by Proteome Discoverer (version 2.3.0.523, Thermo Scientific) using standard settings. […] Differentially expressed proteins were determined using a t-test (threshold: FDR 1% or FDR 5% and S0: 0.13). […]
To look at the downstream consequences of W-Bump formation, we assessed the impact of W-Bumps on protein expression by proteomic analysis following IFNγ induction. We first analyzed the differential protein expression in IFNγ-treated versus control cells (data not shown) and grouped proteins according to the number of tryptophan residues they contain (FIG. 2l). […]

For a further experiment, the system named is 12T cells. Nature of the experiment: Ribosome profiling with diricore / bump analysis. Particulars: IFNγ+IDOi. An excerpt: Preprocessing of FASTQ files consisted of adapter removal using cutadapt (available at doi.org/10.14806/ej.17.1.200) with the parameters (--quality-base=33-O7-e 0.15-m 20-q 5) and removal of rRNA and tRNA contaminants by means of alignment against a reference (rRNA reference data from GENCODE^61 v19: rRNA, MT_RNA, rRNA_pseudogene, and tRNA reference data from GtRNAdb) using bowtie2^62 with parameters (--seed 42−p1—local).
The actual alignment of pre-processed FASTQ files was done with TopHat2^63 and Bowtie2^62 against GRCh37/ hg19 and GENCODE v19/BASIC transcript with Ensembl coordinates using parameters (seed 42-n 2-m 1 --no-novel-juncs --no-novel-indels --no-coverage-search --segment-length 25). In a subsequent step the primary aligned reads filtered for a minimum mapping quality of 10. […]
The reads (FASTQ) from Riboseq experiments were aligned to human transcript assembly (gencode v19) after removal of low quality reads and the reads that align to tRNA and rRNA (refer methods section—Diricore). […]
BAM files were converted to BED using BEDTOOLS 68 and later file formats were edited using PERL scripts. Each gene was divided into 100 windows of equal length, and read (separately for every sample) at each window were quantified using BEDTOOLS. The array of reads, logged (base 2), were normalized between 0 to 1. […]

The next experiment relates to MD55A3 melanoma cells. Nature of the experiment: V5-ATF4(1-63)-His frameshift reporter, His-tag pulldown and V5-tag immunoblotting. The settings on record: IFNγ+IDOi, MD55A3 reporter cells. The source says:
FIG. 3: W-Bumps are associated with disordered out-of-frame peptides, and shortage in tryptophan leads to frameshifting events. • (a) Bar-plots depicting total occurrences of alpha-helices, beta-sheets and turns for tryptophan-containing peptide sequences corresponding to W-Bumps (left) and all remaining peptide sequences (middle), and the difference in percentages (right). […] Tryptophan shortage, on the other hand, can lead to stalling on the tryptophan codon (bottom left panel), or could in theory induce frameshifting events, leading to aberrant peptide production (lower right panel). Since secondary structure of growing polypeptide chains is attained in the lower tunnel of the ribosome, the loss of an a-helical secondary structure in this tunnel could hamper ribosomal progression. (c) Line-plots depicting the probability of disorderedness of peptide sequences. The position of the tryptophan is indicated by the dashed line. […] The green line represents the average probability of disorderedness of all peptides (‘All tryptophan codons’, n=36508). A group of outlier candidates that show relatively ordered out-of-frame peptide sequences were selected for comparisons (‘Selected tryptophan codons’, n=94, red). (d) Line-plots depicting mean frequency of RPFs at single nucleotide resolution across all tryptophans (green) and the selected outlier set (red) from panel 3c. […]
A general note: Immunoblotting shows a protein as a band on a membrane.

Entries after “also recorded” stand apart in the source; their conditions may differ. Where a SMILES comes first, the peptide text is derived from it. The star is where a group is joined. Cbz = O=C(OCc1ccccc1)*

For “TLVEDLLEV (RFX1-based peptide) [SEQ ID NO:58, RFX1-derived peptide presented by MDA-MB-231]”, the immunogenicity result in experiment [1] was “showed immunogenicity”.
`CC(C)C[C@@H](C=O)NC(=O)[C@H](CC(C)C)NC(=O)[C@H](CC(C)C)NC(=O)OCc1ccccc1` [MG132] (Cbz-Leu-Leu-Leu-aldehyde): the “restoration of reduced levels of high-tryptophan containing proteins” value in the experiment on MD55A3 cells is given as “did not restore”.
With `Cn1cc(C[C@H](N)C(=O)O)c2ccccc21` [IDOi, 1-Methyl-L-tryptophan], in the experiment with 12T cells, the “accumulation of RPFs at the W-Bumps region / bumps” value is given as “rescued; also recorded: completely abolished”; the “global redistribution of RPFs towards the translation initiation sites and enrichment of tryptophan codon signal at A-site” value is listed as “negated”. Further, the IFNγ-induced frameshifting result in the experiment with MD55A3 melanoma cells is given as “prevented”.
As for “GLLETHPALLL (SRSF3-based peptide) [SEQ ID NO:62, SRSF3-derived peptide presented by MDA-MB-231]”, the immunogenicity entry in experiment [1] is given as “showed immunogenicity”.
With “TVIGTLLEI (RHOBTB3-based peptide) [SEQ ID NO:61, RHOBTB3-derived peptide presented by MDA-MB-231]”, the immunogenicity entry in experiment [1] is “showed immunogenicity”.
